According to PMC11637483, “Dissecting caspase-2-mediated cell death: from intrinsic PIDDosome activation to chemical modulation” (Protein & Cell, 2024):
“And” between values parts separate entries of the source, which are not always exact repeats. Identical values can stand only once.

Assays:
MBP = MBP (Escherichia coli, UniProt P0AEX9); test: MicroScale Thermophoresis binding to MBP alone (control); conditions: MST
Source text: (§1) The above results prompted us to reason whether HUHS015-36 could directly target caspase-2 for activation without the requirement of any other mediator. To directly test this hypothesis, we tried to obtain purified caspase-2 protein. The preparation of full-length caspase-2 protein is known to be technically challenging. Meanwhile, the CARD domain of a caspase often plays the role in sensing upstream signals, as exemplified by the CARD of caspase-2 that is recruited by RAIDD through the CARD–CARD interaction for assembling the PIDDosome. […]
(§2) Figure 4. […] (A) The direct binding between HUHS015-36 and MBP-fused human caspase-2 pro-domain was detected by microscale thermophoresis (MST). […] The calculated dissociation constant (KD) is expressed as means ± s.d. from two determinations. […] ATP-based cell viability in panels (C–E) is expressed as mean ± s.d. from three technical replicates. […] TEXT PRINTED IN THE PICTURE: (A) HUHS015-36: MBP-CASP2(32–165) vs. HUHS015-36: KD (μmol/L): 22.05 ± 6.151; MBP vs. HUHS015-36: KD (μmol/L): Not detected
(§3) MicroScale thermophoresis (MST) experiments were carried out at 25°C in the PBST Buffer (PBS with 0.05%, v/v Tween 20) by using a Monolith 2020 (TNG) (MM-208). […] The temperature-induced changes in fluorescence intensity of each sample in the capillary thermophoresis tubes were recorded by the Monolith instrument. […]

Hepa1-6 cells = test: Cell death and caspase-2 processing in Hepa1-6 cells; type: cell-based, mouse; conditions: Hepa1-6, 8 h
Source text: We further examined whether HUHS015-derived compounds could activate endogenous caspase-2 in human cells. […] Complementing the CASP2^−/− Jurkat cells with exogenous caspase-2 restored HUHS015-36-induced apoptosis, in which caspase-2 was expectedly processed (Fig. 5A and 5B). We also profiled caspase-2 expression in a panel of 10 mouse tumor cell lines and observed highly variable expression levels (Fig. 5C). […] In B16-F10 (melanoma), LLC1 (Lewis lung carcinoma), MB49 (bladder carcinoma), KPC (pancreatic ductal adenocarcinoma), and 4T1 (mammary carcinoma) cells, caspase-2 was expressed at much lower levels (Fig. 5C). In contrast, EMT6 (mammary carcinoma), EL4 (T lymphoblast), and Hepa1-6 (hepatoma) feature robust caspase-2 expression, much higher than in Jurkat cells (Fig. 5C).
Figure 5. HUHS015-36 activates endogenous caspase-2 to induce apoptosis in Jurkat cells but not mouse cells. (A and B) HUHS015-36 activates endogenous caspase-2 and induces apoptosis in human Jurkat cells. […] Lysates of 10 mouse cancer cell lines were analyzed by immunoblotting using indicated antibodies. […] ATP cell viability (A and D) is expressed as mean ± s.d. from three technical replicates. […]
Cell viability was measured by the ATP assay using the CellTiter-Glo® Luminescent Cell Viability Assay kit (Promega).

[1] = target: T1, MBP-CASP2(32–165), human caspase-2 pro-domain (Homo sapiens, UniProt P42575); test: MicroScale Thermophoresis binding to MBP-fused caspase-2 pro-domain; conditions: MST, 25°C, PBST buffer; means ± s.d. from two determinations; read-out: KD (binding constant)
T1 construct: cDNAs encoding BID and caspase-2 pro-domain (residues 32–165) were constructed into modified pET vectors; made in house; host or cells: E. coli BL21 (DE3)
T1 sequence (P42575 32-165): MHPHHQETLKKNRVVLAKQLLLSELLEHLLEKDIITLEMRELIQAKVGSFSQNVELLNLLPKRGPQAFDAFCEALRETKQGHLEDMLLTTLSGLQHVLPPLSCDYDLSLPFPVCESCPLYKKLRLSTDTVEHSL
Source text: as §1, §2, §3

Cc1cccc2nc(-n3nc4c(c3O)CCCC4)[nH]c12 [HUHS015-36]
KD (MBP): Not detected
caspase-2 processing and cell death (Hepa1-6 cells): no caspase-2 processing and cell death were detected
Kd [1]: ~22 µM and 22.1 µM
